By Kd is commonly meant the constant that tells how readily two partners part at equilibrium. The low end stands for tighter binding, the high end for weaker binding. Usually IC50 stands for the point on the concentration scale where inhibition reaches its midpoint.

The values that follow come from ChEMBL document CHEMBL4376801, “Glycans in drug discovery” (Medchemcomm, 2019).

Assay [1] has as its target Type 1 fimbrin D-mannose specific adhesin (Escherichia coli K-12, UniProt P08191). The assay can be described thus: Binding affinity to Escherichia coli full-length FimH by competitive fluorescence polarization assay. A general note: Polarisation of emitted light reports the rotation of a fluorescent probe.
In a further assay the target is T1, CD209 antigen (Homo sapiens, UniProt Q9NNX6).
T1 sequence (Q9NNX6 whole entry): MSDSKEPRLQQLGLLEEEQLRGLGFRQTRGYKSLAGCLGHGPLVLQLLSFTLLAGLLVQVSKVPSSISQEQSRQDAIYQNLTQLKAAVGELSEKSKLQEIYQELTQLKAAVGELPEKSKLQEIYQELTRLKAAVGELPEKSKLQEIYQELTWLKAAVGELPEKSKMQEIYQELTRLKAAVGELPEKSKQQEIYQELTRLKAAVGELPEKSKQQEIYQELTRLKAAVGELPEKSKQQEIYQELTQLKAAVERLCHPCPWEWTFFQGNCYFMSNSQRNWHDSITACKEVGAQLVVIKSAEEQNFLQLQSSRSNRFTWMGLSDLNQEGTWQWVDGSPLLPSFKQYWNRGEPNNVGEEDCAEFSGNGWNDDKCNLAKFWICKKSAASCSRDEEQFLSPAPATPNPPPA
The assay can be described thus: Binding affinity to human DC-SIGN by SPR analysis. In general terms: SPR reads the build-up and loss of mass on a sensor chip optically.

Sequence of Type 1 fimbrin D-mannose specific adhesin (P08191 whole entry): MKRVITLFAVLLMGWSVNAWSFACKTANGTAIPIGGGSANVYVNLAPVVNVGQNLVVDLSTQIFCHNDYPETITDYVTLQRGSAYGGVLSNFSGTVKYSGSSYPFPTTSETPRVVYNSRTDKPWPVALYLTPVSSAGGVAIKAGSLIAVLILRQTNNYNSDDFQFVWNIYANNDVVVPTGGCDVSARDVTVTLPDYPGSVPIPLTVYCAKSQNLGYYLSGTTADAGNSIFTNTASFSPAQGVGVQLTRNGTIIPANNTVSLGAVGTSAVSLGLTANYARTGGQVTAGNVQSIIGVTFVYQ

For `OC[C@H]1O[C@H](Oc2ccc(-c3ccccc3)cc2)[C@@H](O)[C@@H](O)[C@@H]1O`, the Kd in assay [1] amounted to 1100 nM.
On the same count and under the same terms, for `N#Cc1c(F)c(F)c(-c2ccc(O[C@H]3O[C@H](CO)[C@@H](O)[C@H](O)[C@@H]3O)c(Cl)c2)c(F)c1F` the value was 22.1 nM.
Turning to `COC(=O)[C@H]1C[C@H](OCCN=[N+]=[N-])[C@@H](O[C@H]2O[C@H](CN)[C@@H](O)[C@H](O)[C@@H]2O)C[C@@H]1C(=O)OC`, the IC50 on CD209 antigen was determined as 481 µM.
Compound `[N-]=[N+]=NCCO[C@H]1C[C@H](C(=O)OCc2ccc(CN)cc2)[C@@H](C(=O)OCc2ccc(CN)cc2)C[C@@H]1O[C@H]1O[C@H](CN)[C@@H](O)[C@H](O)[C@@H]1O` came in with an IC50 on CD209 antigen of 254 µM.
